Reference: publication PMC9288506, “Compounds activating VCP D1 ATPase enhance both autophagic and proteasomal neurotoxic protein clearance” (Nature Communications, 2022)

Columns and labels:
Assay in all cases: biochemical
Parameters in all cases: Thermo Fisher in vitro kinase panel, per cent inhibition of kinase activity at 10 uM
AKT1 (PKB alpha) = AKT1 (PKB alpha) (Homo sapiens, UniProt P31749)
Protocol: (§1) Kinase profiling of SMER28 and analogs SMER28 and analogs were tested at 10 µM in a panel of 123 kinases at ThermoFisher Scientific. Follow-up of selected kinases for SMER28 and analogs was also performed at ThermoFisher Scientific. Data are shown in Supplementary Data 2 and 3. […] An inhibition of PIK3C could induce autophagy, mediated by signaling through the AKT/mTOR axis[45].

CDK1/cyclin B = CDK1/cyclin B (Homo sapiens, UniProt P06493)
Protocol: as §1

CDK7/cyclin H/MNAT1 = CDK7/cyclin H/MNAT1 (Homo sapiens, UniProt P50613)
Protocol: as §1

EPHA5 = EPHA5 (Homo sapiens, UniProt P54756)
Protocol: as §1

EPHB1 = EPHB1 (Homo sapiens, UniProt P54762)
Protocol: as §1

ERBB4 (HER4) = ERBB4 (HER4) (Homo sapiens, UniProt Q15303)
Protocol: as §1

FER = FER (Homo sapiens, UniProt P16591)
Protocol: as §1

FGFR1 = FGFR1 (Homo sapiens, UniProt P11362)
Protocol: as §1

FGFR4 = FGFR4 (Homo sapiens, UniProt P22455)
Protocol: as §1

GSK3A (GSK3 alpha) = GSK3A (GSK3 alpha) (Homo sapiens, UniProt P49840)
Protocol: as §1

IGF1R = IGF1R (Homo sapiens, UniProt P08069)
Protocol: as §1

JAK2 = JAK2 (Homo sapiens, UniProt O60674)
Protocol: as §1

LCK = LCK (Homo sapiens, UniProt P06239)
Protocol: as §1

MAPK8 (JNK1) = MAPK8 (JNK1) (Homo sapiens, UniProt P45983)
Protocol: as §1

MAPKAPK2 = MAPKAPK2 (Homo sapiens, UniProt P49137)
Protocol: as §1

MAPKAPK5 (PRAK) = MAPKAPK5 (PRAK) (Homo sapiens, UniProt Q8IW41)
Protocol: as §1

PAK7 (KIAA1264) = target: T1, PAK7 (KIAA1264) (Homo sapiens, UniProt Q9P286)
T1 construct: gene PAK5
Protocol: as §1

PI4KB (PI4K beta) = PI4KB (PI4K beta) (Homo sapiens, UniProt Q9UBF8)
Protocol: as §1

PIK3CG (p110 gamma) = PIK3CG (p110 gamma) (Homo sapiens, UniProt P48736)
Protocol: as §1

PRKACA (PKA) = PRKACA (PKA) (Homo sapiens, UniProt P17612)
Protocol: as §1

PRKCA (PKC alpha) = PRKCA (PKC alpha) (Homo sapiens, UniProt P17252)
Protocol: as §1

PRKCQ (PKC theta) = PRKCQ (PKC theta) (Homo sapiens, UniProt Q04759)
Protocol: as §1

RPS6KB1 (p70S6K) = RPS6KB1 (p70S6K) (Homo sapiens, UniProt P23443)
Protocol: as §1

STK17A (DRAK1) = STK17A (DRAK1) (Homo sapiens, UniProt Q9UEE5)
Protocol: as §1

YES1 = YES1 (Homo sapiens, UniProt P07947)
Protocol: as §1

AKT1 (PKB alpha), sequence (P31749 whole entry): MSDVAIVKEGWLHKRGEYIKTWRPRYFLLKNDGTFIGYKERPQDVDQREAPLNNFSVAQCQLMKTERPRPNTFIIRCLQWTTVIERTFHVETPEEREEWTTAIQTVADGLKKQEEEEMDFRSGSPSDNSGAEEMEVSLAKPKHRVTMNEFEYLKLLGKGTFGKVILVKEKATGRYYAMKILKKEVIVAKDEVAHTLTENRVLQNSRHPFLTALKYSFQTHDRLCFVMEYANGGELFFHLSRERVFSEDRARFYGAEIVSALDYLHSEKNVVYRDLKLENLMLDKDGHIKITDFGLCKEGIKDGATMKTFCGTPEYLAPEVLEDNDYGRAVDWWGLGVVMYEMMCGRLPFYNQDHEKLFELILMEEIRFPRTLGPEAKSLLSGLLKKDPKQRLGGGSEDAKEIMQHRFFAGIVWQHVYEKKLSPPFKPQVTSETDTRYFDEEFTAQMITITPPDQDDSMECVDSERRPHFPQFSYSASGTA
EPHA5, sequence (P54756 whole entry): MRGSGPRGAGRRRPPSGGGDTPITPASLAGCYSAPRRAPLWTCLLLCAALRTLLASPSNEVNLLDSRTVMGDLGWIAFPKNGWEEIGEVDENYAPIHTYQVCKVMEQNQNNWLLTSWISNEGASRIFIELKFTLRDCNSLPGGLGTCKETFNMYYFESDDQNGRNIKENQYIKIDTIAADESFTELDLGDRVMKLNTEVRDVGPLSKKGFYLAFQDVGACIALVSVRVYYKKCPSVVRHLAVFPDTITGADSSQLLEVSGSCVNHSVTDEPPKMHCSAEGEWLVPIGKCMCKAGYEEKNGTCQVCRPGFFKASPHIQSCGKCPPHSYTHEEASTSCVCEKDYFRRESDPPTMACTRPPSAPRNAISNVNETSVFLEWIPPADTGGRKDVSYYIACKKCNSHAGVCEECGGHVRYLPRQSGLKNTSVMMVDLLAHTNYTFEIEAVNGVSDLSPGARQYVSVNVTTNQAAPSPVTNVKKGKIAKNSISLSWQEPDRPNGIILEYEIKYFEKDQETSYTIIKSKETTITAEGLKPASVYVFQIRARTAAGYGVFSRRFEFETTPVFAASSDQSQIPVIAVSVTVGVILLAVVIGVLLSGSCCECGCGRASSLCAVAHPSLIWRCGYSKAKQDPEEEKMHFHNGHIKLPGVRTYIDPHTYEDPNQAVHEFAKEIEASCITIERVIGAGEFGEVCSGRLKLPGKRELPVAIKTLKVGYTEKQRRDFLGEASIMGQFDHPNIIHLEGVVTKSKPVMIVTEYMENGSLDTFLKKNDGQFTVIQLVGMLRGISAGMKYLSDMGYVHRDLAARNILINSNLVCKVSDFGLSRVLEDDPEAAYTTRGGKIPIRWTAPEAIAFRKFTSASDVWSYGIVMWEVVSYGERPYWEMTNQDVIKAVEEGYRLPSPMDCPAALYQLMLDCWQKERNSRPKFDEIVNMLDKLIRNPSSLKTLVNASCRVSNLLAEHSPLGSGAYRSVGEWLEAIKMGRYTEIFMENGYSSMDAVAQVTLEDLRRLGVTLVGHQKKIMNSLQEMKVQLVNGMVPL
RPS6KB1 (p70S6K), sequence (P23443 whole entry): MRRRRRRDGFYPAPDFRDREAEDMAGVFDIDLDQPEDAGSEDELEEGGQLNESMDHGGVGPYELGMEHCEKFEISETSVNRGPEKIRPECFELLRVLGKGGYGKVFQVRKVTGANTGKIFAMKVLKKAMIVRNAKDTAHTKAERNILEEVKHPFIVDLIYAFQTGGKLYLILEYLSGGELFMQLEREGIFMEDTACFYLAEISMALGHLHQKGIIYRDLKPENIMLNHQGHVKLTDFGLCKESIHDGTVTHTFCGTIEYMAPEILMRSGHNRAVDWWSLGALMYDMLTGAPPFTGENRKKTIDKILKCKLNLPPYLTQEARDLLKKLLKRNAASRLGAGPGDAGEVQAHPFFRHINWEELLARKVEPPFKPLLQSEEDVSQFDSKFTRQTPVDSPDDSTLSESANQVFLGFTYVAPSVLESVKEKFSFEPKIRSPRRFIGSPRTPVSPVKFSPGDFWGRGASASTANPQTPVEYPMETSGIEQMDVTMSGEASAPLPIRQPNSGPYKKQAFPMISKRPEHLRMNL
PRKCQ (PKC theta), sequence (Q04759 whole entry): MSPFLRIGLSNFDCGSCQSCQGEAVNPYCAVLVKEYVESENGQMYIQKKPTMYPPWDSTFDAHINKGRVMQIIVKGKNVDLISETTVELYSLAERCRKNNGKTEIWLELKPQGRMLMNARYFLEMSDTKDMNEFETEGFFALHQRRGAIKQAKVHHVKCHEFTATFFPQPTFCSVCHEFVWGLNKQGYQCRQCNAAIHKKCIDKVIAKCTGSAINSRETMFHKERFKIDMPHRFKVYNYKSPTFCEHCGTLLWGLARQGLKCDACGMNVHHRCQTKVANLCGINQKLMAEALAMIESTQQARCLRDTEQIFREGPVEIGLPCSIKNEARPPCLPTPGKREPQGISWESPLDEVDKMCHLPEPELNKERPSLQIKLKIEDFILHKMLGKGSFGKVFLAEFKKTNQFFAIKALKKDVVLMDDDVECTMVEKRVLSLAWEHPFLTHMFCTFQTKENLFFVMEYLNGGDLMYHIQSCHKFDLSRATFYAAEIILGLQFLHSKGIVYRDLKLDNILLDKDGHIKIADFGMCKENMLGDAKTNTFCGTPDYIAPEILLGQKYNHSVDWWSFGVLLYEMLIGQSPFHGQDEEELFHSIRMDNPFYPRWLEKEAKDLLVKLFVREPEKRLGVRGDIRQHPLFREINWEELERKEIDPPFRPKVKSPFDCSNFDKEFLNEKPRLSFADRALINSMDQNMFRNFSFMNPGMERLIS
GSK3A (GSK3 alpha), sequence (P49840 whole entry): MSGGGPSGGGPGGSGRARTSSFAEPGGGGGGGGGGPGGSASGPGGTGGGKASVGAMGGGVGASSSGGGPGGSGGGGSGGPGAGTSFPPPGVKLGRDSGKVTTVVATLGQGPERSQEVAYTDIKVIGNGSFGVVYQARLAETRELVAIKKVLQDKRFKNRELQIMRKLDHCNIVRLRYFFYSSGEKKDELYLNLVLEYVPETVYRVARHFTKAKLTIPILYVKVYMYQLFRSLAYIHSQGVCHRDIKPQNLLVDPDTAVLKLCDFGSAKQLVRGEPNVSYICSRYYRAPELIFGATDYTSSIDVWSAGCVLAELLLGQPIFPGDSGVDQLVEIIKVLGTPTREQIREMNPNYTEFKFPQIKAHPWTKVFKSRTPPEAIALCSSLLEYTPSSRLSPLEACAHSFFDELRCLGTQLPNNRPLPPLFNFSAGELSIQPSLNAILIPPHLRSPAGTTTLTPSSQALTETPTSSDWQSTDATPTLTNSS
IGF1R, sequence (P08069 whole entry): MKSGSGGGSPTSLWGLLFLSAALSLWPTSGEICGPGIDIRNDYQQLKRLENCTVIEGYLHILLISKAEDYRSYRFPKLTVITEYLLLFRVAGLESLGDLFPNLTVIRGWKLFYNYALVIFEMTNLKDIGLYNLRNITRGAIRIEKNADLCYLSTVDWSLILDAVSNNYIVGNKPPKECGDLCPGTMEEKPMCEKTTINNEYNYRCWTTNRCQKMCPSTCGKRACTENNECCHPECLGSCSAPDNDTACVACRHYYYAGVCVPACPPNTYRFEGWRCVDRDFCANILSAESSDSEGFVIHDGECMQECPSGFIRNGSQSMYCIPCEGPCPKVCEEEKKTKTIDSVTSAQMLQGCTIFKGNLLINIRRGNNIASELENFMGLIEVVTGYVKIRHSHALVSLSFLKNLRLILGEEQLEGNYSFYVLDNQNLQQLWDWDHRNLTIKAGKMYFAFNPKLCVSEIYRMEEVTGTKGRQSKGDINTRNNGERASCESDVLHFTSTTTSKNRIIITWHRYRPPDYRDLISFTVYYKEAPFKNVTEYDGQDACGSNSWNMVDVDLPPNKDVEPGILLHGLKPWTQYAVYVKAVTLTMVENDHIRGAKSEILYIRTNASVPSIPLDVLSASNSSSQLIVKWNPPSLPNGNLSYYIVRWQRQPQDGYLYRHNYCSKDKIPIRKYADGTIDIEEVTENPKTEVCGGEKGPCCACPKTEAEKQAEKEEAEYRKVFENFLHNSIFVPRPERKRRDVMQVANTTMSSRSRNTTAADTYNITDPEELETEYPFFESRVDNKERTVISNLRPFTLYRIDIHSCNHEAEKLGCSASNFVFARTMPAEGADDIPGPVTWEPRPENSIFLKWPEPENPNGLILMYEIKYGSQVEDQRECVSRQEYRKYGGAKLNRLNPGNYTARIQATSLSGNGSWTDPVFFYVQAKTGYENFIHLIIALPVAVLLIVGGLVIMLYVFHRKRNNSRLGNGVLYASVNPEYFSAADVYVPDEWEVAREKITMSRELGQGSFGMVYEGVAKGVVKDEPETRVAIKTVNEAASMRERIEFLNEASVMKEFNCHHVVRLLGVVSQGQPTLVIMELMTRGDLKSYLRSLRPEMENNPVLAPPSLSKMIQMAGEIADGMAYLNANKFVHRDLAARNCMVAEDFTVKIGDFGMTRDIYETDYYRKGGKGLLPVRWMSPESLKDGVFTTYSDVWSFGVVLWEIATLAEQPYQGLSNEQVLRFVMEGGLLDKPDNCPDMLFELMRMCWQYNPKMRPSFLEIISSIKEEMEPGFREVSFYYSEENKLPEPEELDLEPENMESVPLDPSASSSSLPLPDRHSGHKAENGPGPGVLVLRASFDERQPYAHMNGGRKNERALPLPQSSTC
MAPK8 (JNK1), sequence (P45983 whole entry): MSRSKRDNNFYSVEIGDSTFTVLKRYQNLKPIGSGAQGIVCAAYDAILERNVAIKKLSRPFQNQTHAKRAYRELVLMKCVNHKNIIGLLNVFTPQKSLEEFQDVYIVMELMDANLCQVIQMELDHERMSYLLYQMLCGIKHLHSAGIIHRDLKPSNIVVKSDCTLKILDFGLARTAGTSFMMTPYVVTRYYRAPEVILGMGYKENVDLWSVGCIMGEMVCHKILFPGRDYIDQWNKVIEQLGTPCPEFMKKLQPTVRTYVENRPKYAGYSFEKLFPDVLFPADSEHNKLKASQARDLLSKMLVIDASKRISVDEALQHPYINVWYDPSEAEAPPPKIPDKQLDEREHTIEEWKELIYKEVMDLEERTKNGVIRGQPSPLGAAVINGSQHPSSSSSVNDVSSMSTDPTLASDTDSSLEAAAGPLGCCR

SMILES: C=CCNc1ncnc2ccc(Br)cc12 [SMER28]
- inhibition at 10 µM (AKT1 (PKB alpha)): 3%
- inhibition at 10 µM (CDK1/cyclin B): 22%
- inhibition at 10 µM (CDK7/cyclin H/MNAT1): 34%
- inhibition at 10 µM (EPHA5): 7%
- inhibition at 10 µM (EPHB1): 6%
- inhibition at 10 µM (ERBB4 (HER4)): 10%
- inhibition at 10 µM (FER): 16%
- inhibition at 10 µM (FGFR1): 27%
- inhibition at 10 µM (FGFR4): 7%
- inhibition at 10 µM (GSK3A (GSK3 alpha)): 23%
- inhibition at 10 µM (IGF1R): 12%
- inhibition at 10 µM (JAK2): 3%
- inhibition at 10 µM (LCK): 19%
- inhibition at 10 µM (MAPK8 (JNK1)): -2%
- inhibition at 10 µM (MAPKAPK2): 0%
- inhibition at 10 µM (MAPKAPK5 (PRAK)): 8%
- inhibition at 10 µM (PAK7 (KIAA1264)): 7%
- inhibition at 10 µM (PI4KB (PI4K beta)): 66%
- inhibition at 10 µM (PIK3CG (p110 gamma)): 65%
- inhibition at 10 µM (PRKACA (PKA)): 10%
- inhibition at 10 µM (PRKCA (PKC alpha)): 10%
- inhibition at 10 µM (PRKCQ (PKC theta)): 0%
- inhibition at 10 µM (RPS6KB1 (p70S6K)): 22%
- inhibition at 10 µM (STK17A (DRAK1)): 34%
- inhibition at 10 µM (YES1): 13%
